We go through six molecules from patent US8663602B2, “Method for high-throughput screening of compounds and combinations of compounds for discovery and quantification of actions, particularly unanticipated therapeutic or toxic actions, in biological systems” (The Regents of the University of California, priority 2003, dated 2014).

Entries after “also recorded” stand apart in the source; their conditions may differ.

One series deals with mammary epithelial cell. As to the kind of experiment: Mammary epithelial cell (MEC) proliferation in intact and ovariectomized rats by 2H2O labeling, GC/MS. It counts as in vivo, Sprague-Dawley rats. To be noted: for MEC proliferation: all doses, treated and labeled for 7 days, in the presence or absence of estrogen; for MEC proliferation rates: even the lowest dose; for mammary epithelial cell proliferation: intact female rats and ovariectomized rats, very low doses.

For the next series, the system named is neurons. As to the kind of experiment: Neuron turnover (fractional replacement) in mice by 2H2O labeling and GC/MS of DNA from isolated neurons. It counts as in vivo. The method, then: Groups of mice (n=5/group) were given a bolus of ^2H2O (Spectra Isotopes, Columbia, Md.) to 5% ^2H2O in body water and were given 8% ^2H2O as drinking water. Mice were maintained on ^2H2O for 45 days, during which period they also received injections every other day of either lipopolysaccharide (LPS) (Sigma, St. Louis, Mo.) in saline at a dose of 1 or 4 mg/kg body weight, or no injection.
Mice were euthanized with carbon dioxide, and their brains were removed. Hippocampi were dissected out, trypsinized, and stained with tetanus toxoid (Ttx), a specific marker for neurons, and then stained with a FITC labeled anti-Ttx antibody (Roche, Basel Switzerland). […]

A further series relates to neuroprogenitor cells. To be noted: chronic exposure to LPS; Ekdahl et al. 2003; cited from earlier work.
The next series relates to liver cell. Briefly: Liver cell proliferation in mice during griseofulvin administration (2H2O labeling). It counts as in vivo. The note with it: 1% griseofulvin in chow (low dose, NOEL), 5 days. The method, then:
Cell proliferation was measured as described, supra.

A short description of series [1]: Plasma liver enzymes in mice given griseofulvin. It counts as in vivo. The note with it: 1% dose; data not shown.
Series [2] in a line: Food intake and body weight of mice on 2H2O. It counts as in vivo. The note with it: 0.012 ml/gm injection then 4% 2H2O in drinking water. The protocol:
Mice were injected with ^2H2O (deuterated water) 0.012 ml/gm. […] Twenty-one days following the start of ^2H2O administration, mice were fasted for four hours, anesthetized with isoflurane and exsanguinated via heart puncture.

The nature of series [3]: Tolerability of maintained 2H2O body water enrichment. It counts as in vivo, humans. The note with it: 1-10% of body water labeled, weeks or months; >100 people; rapid changes in enrichment prevented. The source says: Relatively high body water enrichments of ^2H2O (e.g., 1-10% of the total body water is labeled) may be achieved relatively inexpensively using the techniques of the invention. This water enrichment is relatively constant and stable as these levels are maintained for weeks or months in humans and in experimental animals without any evidence of toxicity. This finding in a large number of human subjects (>100 people) is contrary to previous concerns about vestibular toxicities at high doses of ^2H2O. The Applicant has discovered that as long as rapid changes in body water enrichment are prevented (e.g., by initial administration in small, divided doses), high body water enrichments of ^2H2O can be maintained with no toxicities. For example, the low cost of commercially available ^2H2O allows long-term maintenance of enrichments in the 1-5% range at relatively low expense (e.g., calculations reveal a lower cost for 2 months labeling at 2% ^2H2O enrichment, and thus 7-8% enrichment in the alanine precursor pool, than for 12 hours labeling of ^2H-leucine at 10% free leucine enrichment, and thus 7-8% enrichment in leucine precursor pool for that period).

For the next series, the system named is adipocytes. Briefly: Adipocyte proliferation in ob/ob mice by 2H2O labeling of adipose cell DNA. It counts as in vivo. To be noted: murine leptin 2 μg/day s.c. osmotic pump, 21 days 2H2O. From the text: Four week old, female, C57/bl6j mice (Jackson Labs Bar Harbor, […].) were studied: C57/bl6j ^+/? controls (con), ad libitum fed C57/bl6j^lep-/lep- (ob/ob), leptin treated ob/ob (ob-lep) and food restricted ob/ob (ob-r). Mice were housed individually in hanging wire cages and fed AIN 93 purified diets (Bio Serv, Frenchtown, N.J.). Mice were given 3 days to acclimate to the environment, after which mice grew normally. All treatments and interventions began 5 days prior to the start of labeling with ^2H2O.
Ob-lep mice received murine leptin subcutaneously at a dose of 2 μg/day (Amgen, Thousand Oaks Calif.) via a 28 day Alzet mini osmotic pump (Alza Corp. Palo Alto Calif.).
Mice were injected with ^2H2O (deuterated water) 0.012 ml/gm. […]
The frozen slurry of adipocytes was lyophilized, the dry weight of the sample was determined and then the samples were digested and DNA isolated as described elsewhere (Neese, R. A. et al. Advances in the Stable Isotope-Mass Spectrometric Measurement of DNA Synthesis and Cell Proliferation. Anal Biochem 298, 189-195. (2001)) using Quiagen DNeasy tissue kits. The yield of DNA from each sample was determined with a Pharmacia Biotec Genequant II spectrophotometer. […]
PTA samples were analyzed for incorporation of deuterium on a HP model 5973 MS with a 6890 GC and auto-sampler (Agilent, Palo Alto, Calif.). […]

Consider `CC/C(=C(\c1ccccc1)c1ccc(OCCN(C)C)cc1)c1ccccc1` [tamoxifen], for which, in the series on mammary epithelial cell, the MEC proliferation result is reported as “Significant reductions of MEC proliferation”, the MEC proliferation rates result was “efficacious anti-proliferative agents” and the “mammary epithelial cell proliferation” value is “decrease in mammary epithelial cell proliferation”.
lipopolysaccharide [LPS]: in the series on neurons (LPS 1 or 4 mg/kg injected every other day, 45 days with 2H2O, vs control, p<0.05, dose dependent), the “neuron turnover (fractional replacement of neurons)” value is given as “statistically significant increase in neuron turnover; also recorded: turnover more rapidly”. Also, the “calculated fractional synthesis rate (f) of new neurons” value in the series with neurons (after exposure to LPS, control approximately 7%) is recorded as about 14%. Moreover, the neurogenesis entry in the series on neuroprogenitor cells is “neurogenesis was observed to decrease”.
Turning to `COC1=CC(=O)C[C@@H](C)[C@]12Oc1c(Cl)c(OC)cc(OC)c1C2=O` [griseofulvin], the liver cell proliferation result in the series on liver cell is “increased liver cell proliferation”. Moreover, in series [1], the plasma liver enzymes entry is “did not induce elevated levels of plasma liver enzymes”.
Consider `O=C(c1ccc(OCCN2CCCCC2)cc1)c1c(-c2ccc(O)cc2)sc2cc(O)ccc12` [raloxifene], for which, in the series with mammary epithelial cell, the MEC proliferation entry is recorded as “Significant reductions of MEC proliferation”, the MEC proliferation rates result is recorded as “efficacious anti-proliferative agents” and the “mammary epithelial cell proliferation” value is recorded as “decrease in mammary epithelial cell proliferation”.
Regarding `[2H]O[2H]` [^2H2O, deuterated water], the “food intake or body weight” value in series [2] was “no impact on food intake or body weight”. The “toxicity of maintained body water enrichment” value in series [3] is on record as “no toxicities”.

B1: leptin: murine leptin (Amgen) given subcutaneously via osmotic pump (protein, UniProt P41160 22-167, looked up)
Leptin: VPIQKVQDDTKTLIKTIVTRINDISHTQSVSAKQRVTGLDFIPGLHPILSLSKMDQTLAVYQQVLTSLPSQNVLQIANDLENLRDLLHLLAFSKSCSLPQTSGLQKPESLDGVLEASLYSTEVVALSRLQGSLQDILQQLDVSPEC
Take B1: the “adipocyte proliferation (fat cell proliferation)” value in the series on adipocytes is “decrease in adipocyte proliferation”.
